The conditions of experiment [1]: literature value, Experientia 32(9), 1104-1106 (1976); cited from earlier work.
For experiment [2], the system named is serum calcium concentration. Kind of experiment: Biological assay of calcitonin analogs in vivo: reduction of serum calcium vs salmon calcitonin standard, 2x2 parallel line assay. Details: species or system Rats. As to conditions: standard salmon calcitonin used in the assay. The procedure: Biological Assay of Calcitonin Analogs in Vivo
The biological potency of des-17-histidine-salmon calcitonin was determined by comparing the reduction of serum calcium concentration which followed administration by graded doses of des-His^17 -SCT and synthetic salmon calcitonin standard. Rats were divided into four groups of seven animals, and each group was assigned at random to a dose of standard or test solution. Low and high doses were chosen from the linear portion of the dose-response curve. For the salmon calcitonin standard, the values were 0.7 and 2.1 ng. peptide/100 g. body weight (BW). This dose approximates 3 and 9 MU/100 g. BW. Peptides were given by subcutaneous injection (0.2 ml/100 g. BW) and blood was withdrawn 1 hour later for serum calcium determination. Sera are processed and analyzed within two hours of collection. […]. Results were analyzed by a 2×2 parallel line assay [Gaddum, J. H., J. Pharm. Pharmacol., 6, 345 (1953)]. The standard salmon calcitonin used was independently determined to contain greater than 4,000 IU/mg. des-His^17 -SCT assayed at 4250 IU/mg.

In the case of “eel calcitonin [synthetic eel calcitonin]”, the hypocalcemic potency entry in experiment [1] was “around 4300 IU/mg”.

Turning to “(1,7-alpha-L-amino-suberic acid) eel calcitonin”, the hypocalcemic potency entry in experiment [1] was “about 3400 IU/mg”.

In the case of `CC(C)C[C@H](NC(=O)[C@H](CCCCN)NC(=O)CNC(=O)[C@H](CC(C)C)NC(=O)[C@@H](NC(=O)[C@@H]1CSSC[C@H](N)C(=O)N[C@@H](CO)C(=O)N[C@@H](CC(N)=O)C(=O)N[C@@H](CC(C)C)C(=O)N[C@@H](CO)C(=O)N[C@@H]([C@@H](C)O)C(=O)N1)C(C)C)C(=O)N[C@@H](CO)C(=O)N[C@@H](CCC(N)=O)C(=O)N[C@@H](CCC(=O)O)C(=O)N[C@@H](CC(C)C)C(=O)N[C@@H](Cc1c[nH]cn1)C(=O)N[C@@H](CCCCN)C(=O)N[C@@H](CC(C)C)C(=O)N[C@@H](CCC(N)=O)C(=O)N[C@H](C(=O)N[C@@H](Cc1ccc(O)cc1)C(=O)N1CCC[C@H]1C(=O)N[C@@H](CCCNC(=N)N)C(=O)N[C@H](C(=O)N[C@@H](CC(N)=O)C(=O)N[C@H](C(=O)NCC(=O)N[C@@H](CO)C(=O)NCC(=O)N[C@H](C(=O)N1CCC[C@H]1C(N)=O)[C@@H](C)O)[C@@H](C)O)[C@@H](C)O)[C@@H](C)O` [standard salmon calcitonin, Salmon calcitonin], in experiment [2], the “potency content of the standard, independently determined” value was “greater than 4,000 IU/mg”.

These data come from patent US5001222A, “Des-17-histidine-calcitonin” (Rhone-Poulenc Rorer Pharmaceuticals Inc., priority 1988, dated 1991).
